Here are results for four compounds from paper PMC8875489, “Pharmaceutical and Safety Profile Evaluation of Novel Selenocompounds with Noteworthy Anticancer Activity” (Pharmaceutics, 2022).

The first series deals with Salmonella Typhimurium TA100 strain.
Test: not given
The conditions noted are these: 1 µM; TA100; alert ≥ 2.0. The procedure:
Safety profiles were evaluated using an in vitro microbiological method adapted to the microplate Ames test (384-well microtitration plate), which applies Salmonella enterica serovar Typhimurium bacterial strains (the gold standard in mutagenicity research). The experiment was performed according to a previously described protocol, which is provided in the Supplementary Materials. Briefly, the TA 100 strain (deprived of the ability to synthesize the histidine) was incubated with each tested compound in an exposure medium containing a limited amount of histidine. The reversion events were counted both manually and by means of a microplate reader. Each fold increase bigger than two times the baseline level (≥2.0-fold) was considered to indicate a mutagen alert. The experiments and data analyses were prepared according to the procedure that was previously described by Flückiger-Isler et al.. The assay was performed in triplicate. The positive control selected for the mutagenicity assays was NQNO, which causes genome point mutations; specifically, it promotes G:C → A:T transitions in the Salmonella Typhimurium TA-100 strain and other bacteria such as Vibrio harveyi and Escherichia coli.
In the next step of the studies, the in vitro safety profiles of the tested selenocompounds were evaluated. All compounds were tested with the 384-well plate microfluctuation Ames test. The mutagenic index (MI) was used as the measure of mutagenicity.
1.5. Safety profile evaluation - Ames microplate mutagenicity assay
Safety profile was evaluated by the means of in vitro microbiological methods – adapted to microplate Ames test, which applies Salmonella enterica serovar Typhimurium bacterial strains (the gold standard in mutagenicity research).
1.5.1. Compounds preparation
To evaluate the impact of tested compounds and of references on Salmonella enterica serovar Typhimurium (onwards Salmonella Typhimurium) TA-100 strain growth by means of the Ames test, the compounds or the reference were dissolved in the pure DMSO, to obtain the corresponding 10 mM stock solutions. Working solutions for tested compounds (25 μM and 250 μM concentrations) were prepared before the assay in DMSO.
1.5.2. Microplate Ames mutagenicity assay protocol
Prior to the experiment, Salmonella Typhimurium was cultured overnight (NB-2 liq-uid medium in the presence of 25 μg/mL ampicillin). At the day of the experiment, fresh dilutions of the tested compounds (25 μM and 250 μM), reference compound (methylse-leninic acid) and standard mutagen (4-nitroquinoline-N-oxide at 2.5 μM and 12.5 μM) in DMSO were prepared. The positive control selected for the mutagenicity assays was NQNO, which causes point mutations at the genome. Specifically, it promotes G:C → A:T transitions in Salmonella Typhimurium TA-100 strain and in the other bacteria such as Vib-rio harveyi and Escherichia coli.
The mutagenic potential of the tested derivatives was evaluated by the incubation of the abovementioned bacteria (deprived of the ability to synthesize the histidine) with spe-cific concentrations of the tested compounds (for 90 min in the exposure medium), con-taining a limited amount of histidine (enough to provide approximately 2-3 cell divisions).
The occurrence of reversion events to histidine prototrophy was observed through the bacterial growth in the indicator medium without histidine after 48 h of incubation in temperature of 37° C [45]. The final compound and the mutagenic agent concentrations in each single well of a 384 well plate were 1 μM and 10 μM for the compounds; and 0.1 μM and 0.5 μM for the mutagen. Lastly, both a manual count and a microplate reader were used to obtain the results. The medium control baseline (MCB) was estimated as the mean number of revertants in the medium control plus one standard deviation. Each fold in-crease bigger than two times the baseline level ≥ 2.0 was considered as a mutagen alert.
For `C[Se]C(=O)c1cccc(C(=O)[Se]C)n1` [EDA-119, Se,Se-dimethyl pyridine-2,6-bis(carboselenoate)], the “Fold Increase over Baseline” value was 0.54.

Take `CC(=O)C[Se]C(=O)c1ccc(Cl)cc1` [EDA-71, Se-(2-oxopropyl) 4-chlorobenzoselenoate]: the “Fold Increase over Baseline” value was 0.60.

Turning to `CC(C)(C)C(=O)C[Se]C(=O)c1ccc(Cl)cc1` [EDA-73, Se-(3,3-dimethyl-2-oxobutyl) 4-chlorobenzoselenoate], the “Fold Increase over Baseline” value was found to be 0.84.

As to `COc1cc(OC)cc(C(=O)[Se]CC(=O)C(C)(C)C)c1` [EDA-74, Se-(3,3-dimethyl-2-oxobutyl) 3,5-dimethoxybenzoselenoate], the “Fold Increase over Baseline” value amounted to 0.98.

The same series, now with this note: 1 µM; TA100; mutagenic if MI ≥ 2.
As for `C[Se]C(=O)c1cccc(C(=O)[Se]C)n1` [EDA-119, Se,Se-dimethyl pyridine-2,6-bis(carboselenoate)], the “MI (mutagenic index)” value stood at 0.56.

On to `CC(=O)C[Se]C(=O)c1ccc(Cl)cc1` [EDA-71, Se-(2-oxopropyl) 4-chlorobenzoselenoate], for which the “MI (mutagenic index)” value is on record as 0.54.

With `CC(C)(C)C(=O)C[Se]C(=O)c1ccc(Cl)cc1` [EDA-73, Se-(3,3-dimethyl-2-oxobutyl) 4-chlorobenzoselenoate], the “MI (mutagenic index)” value is recorded as 1.28.

As for `COc1cc(OC)cc(C(=O)[Se]CC(=O)C(C)(C)C)c1` [EDA-74, Se-(3,3-dimethyl-2-oxobutyl) 3,5-dimethoxybenzoselenoate], the “MI (mutagenic index)” value stood at 0.88.

The series is the same for the next values; noted with them: 1 µM; TA100; threshold ≥ 0.99.
As to `C[Se]C(=O)c1cccc(C(=O)[Se]C)n1` [EDA-119, Se,Se-dimethyl pyridine-2,6-bis(carboselenoate)], the “B (binomial B value)” value is on record as 0.24.

As to `CC(=O)C[Se]C(=O)c1ccc(Cl)cc1` [EDA-71, Se-(2-oxopropyl) 4-chlorobenzoselenoate], the “B (binomial B value)” value is listed as 0.34.

As for `CC(C)(C)C(=O)C[Se]C(=O)c1ccc(Cl)cc1` [EDA-73, Se-(3,3-dimethyl-2-oxobutyl) 4-chlorobenzoselenoate], the “B (binomial B value)” value is on record as 0.72.

Regarding `COc1cc(OC)cc(C(=O)[Se]CC(=O)C(C)(C)C)c1` [EDA-74, Se-(3,3-dimethyl-2-oxobutyl) 3,5-dimethoxybenzoselenoate], the “B (binomial B value)” value stood at 0.94.

The series is the same for the next values; noted with them: 10 µM; TA100; alert ≥ 2.0.
As to `C[Se]C(=O)c1cccc(C(=O)[Se]C)n1` [EDA-119, Se,Se-dimethyl pyridine-2,6-bis(carboselenoate)], the “Fold Increase over Baseline” value was 0.92.

In the case of `CC(=O)C[Se]C(=O)c1ccc(Cl)cc1` [EDA-71, Se-(2-oxopropyl) 4-chlorobenzoselenoate], the “Fold Increase over Baseline” value was 0.89.

On to `CC(C)(C)C(=O)C[Se]C(=O)c1ccc(Cl)cc1` [EDA-73, Se-(3,3-dimethyl-2-oxobutyl) 4-chlorobenzoselenoate], for which the “Fold Increase over Baseline” value amounted to 0.52.

With `COc1cc(OC)cc(C(=O)[Se]CC(=O)C(C)(C)C)c1` [EDA-74, Se-(3,3-dimethyl-2-oxobutyl) 3,5-dimethoxybenzoselenoate], the “Fold Increase over Baseline” value amounted to 0.76.

The same series, now with this note: 10 µM; TA100; mutagenic if MI ≥ 2.
`C[Se]C(=O)c1cccc(C(=O)[Se]C)n1` [EDA-119, Se,Se-dimethyl pyridine-2,6-bis(carboselenoate)]: the “MI (mutagenic index)” value came to 0.96.

`CC(=O)C[Se]C(=O)c1ccc(Cl)cc1` [EDA-71, Se-(2-oxopropyl) 4-chlorobenzoselenoate]: the “MI (mutagenic index)” value is 0.79.

As for `CC(C)(C)C(=O)C[Se]C(=O)c1ccc(Cl)cc1` [EDA-73, Se-(3,3-dimethyl-2-oxobutyl) 4-chlorobenzoselenoate], the “MI (mutagenic index)” value is 0.79.

`COc1cc(OC)cc(C(=O)[Se]CC(=O)C(C)(C)C)c1` [EDA-74, Se-(3,3-dimethyl-2-oxobutyl) 3,5-dimethoxybenzoselenoate]: the “MI (mutagenic index)” value is given as 0.69.

The same series, now with this note: 10 µM; TA100; threshold ≥ 0.99.
In the case of `C[Se]C(=O)c1cccc(C(=O)[Se]C)n1` [EDA-119, Se,Se-dimethyl pyridine-2,6-bis(carboselenoate)], the “B (binomial B value)” value is given as 0.90.

For the compound `CC(=O)C[Se]C(=O)c1ccc(Cl)cc1` [EDA-71, Se-(2-oxopropyl) 4-chlorobenzoselenoate], the “B (binomial B value)” value is on record as 0.98.

Turning to `CC(C)(C)C(=O)C[Se]C(=O)c1ccc(Cl)cc1` [EDA-73, Se-(3,3-dimethyl-2-oxobutyl) 4-chlorobenzoselenoate], the “B (binomial B value)” value was determined as 0.04.

For `COc1cc(OC)cc(C(=O)[Se]CC(=O)C(C)(C)C)c1` [EDA-74, Se-(3,3-dimethyl-2-oxobutyl) 3,5-dimethoxybenzoselenoate], the “B (binomial B value)” value was 0.68.

System in another series: not listed separately
Kind of series: Experimental aqueous solubility (UV spectrophotometry of saturated solutions). Type of series: physicochemical. Particulars: experimental solubility. The method, then: Experimental aqueous solubility was determined following a previously described procedure. Briefly, calibration curves were obtained by means of UV spectrometry for each compound, and their respective linear equations were obtained. Afterwards, saturated solutions of each compound were obtained, and they were diluted until the concentration fell within the calibration range, thus enabling the correct concentration interpolation. […] A detailed description of this process can be found in Supplementary Materials.
The aqueous solubility of the tested organic Se compounds was experimentally determined following a previously described procedure. The chosen assay used UV spectrophotometry to estimate the concentration of the saturated solution with known dilutions of the tested compound at room temperature (20° C) after 24 h. The concentrations of the solutions were used to obtain the interpolation of the measured UV absorbance of the saturated solution dilution from the calibration curve drawn using solutions previously prepared in methanol/water mixtures. […]
1.2. Determination of the aqueous solubility
1.2.1. Preparation of the saturated solutions of tested compounds
The saturated solutions (2 mL) of the tested Se-compounds in water were prepared at H2O boiling point in small glass vials. Later, vials were covered to avoid evaporation and all solutions were left 1 day at 20° C, after when every solution was filtered. Finally, the concentration of the Se-compounds was determined through UV spectrophotometric measurements. To estimate correctly the concentration, calibration curves with known concentrations were prepared, and the saturated solutions were diluted till reaching a point within the range of the respective calibration curve.
1.2.2. Preparation of the calibration curve stock solutions for UV spectrometry The stock solutions of 10 selenoesters (EDA-26, EDA-71, EDA-73, EDA-74, EDA-93, […]
were prepared in methanol (99% purity) at a 1 g/L concentration. Additionally, calibration solutions in the range from 0.0005 to 0.02 [g/L] were prepared for each Se-compound and their UV absorbance was determined to draw the corresponding calibration curve.
1.2.3. Sample preparation of saturated filtrates for UV spectrometry
The 100-fold diluted solutions of the saturated filtrates of the Se-compounds were prepared in the anhydrous methanol (99% purity), by addition of 70 μL of the correspond-ing methanol stock solution over anhydrous methanol till filling a 7 mL final volume. Af-terwards, the absorption of abovementioned solutions was determined. Finally, the solu-tions were diluted with 99% methanol from 1 to 160 times, in function of the compound.
The aim of this procedure was to determine the concentration of the Se-compounds […]
through the controlled dilution of the solution with unknown concentration till its UV absorbance fell within the range of the calibration solutions.
1.2.4. Solubility estimation
For each compound, the calibration curve was calculated through the UV absorbance measurements and the linear equation of the linear part of the curve was calculated. The absorbance of the dilution was then interpolated in this range, finding its concentration.
To determine the solubility, this concentration was multiplied by the dilution factor, which was specific for each derivative. This action enabled the estimation of the in vitro solubility of the tested derivatives in saturated solutions. All the solubility values were the average value obtained from the 3 independent measurements.
1.3. PAMPA test: membrane permeability evaluation.
The passive transport and the membrane absorption of 5 selected selenocompounds (EDA-58, EDA-71, EDA-119, EDA-122, EDA-A6) were evaluated in the in vitro Parallel Artificial Membrane Permeability Assay (PAMPA). The protocol of the permeability assay was similar to the ones previously described.
1.3.1. Stock solutions and sample preparation for PAMPA test […]
As for `CC(C)(C)C(=O)C[Se]C(=O)c1ccc(Cl)cc1` [EDA-73, Se-(3,3-dimethyl-2-oxobutyl) 4-chlorobenzoselenoate], the “fold less soluble than the most soluble Se compound (EDA-117)” value is “more than 1000 fold”.

Staying with this series, now noted: water (saturated solution), 20 °C, water, thermodynamic from solid; logSm calculated based on solubility Sm (mol/L); read-out: Experimental Aqueous Solubility logSm (converted).
As to `C[Se]C(=O)c1cccc(C(=O)[Se]C)n1` [EDA-119, Se,Se-dimethyl pyridine-2,6-bis(carboselenoate)], the solubility at 24 h is 427 µM.

As to `CC(=O)C[Se]C(=O)c1ccc(Cl)cc1` [EDA-71, Se-(2-oxopropyl) 4-chlorobenzoselenoate], the solubility at 24 h was 479 µM.

For the compound `CC(C)(C)C(=O)C[Se]C(=O)c1ccc(Cl)cc1` [EDA-73, Se-(3,3-dimethyl-2-oxobutyl) 4-chlorobenzoselenoate], the solubility at 24 h is ~3.16 µM.

Take `COc1cc(OC)cc(C(=O)[Se]CC(=O)C(C)(C)C)c1` [EDA-74, Se-(3,3-dimethyl-2-oxobutyl) 3,5-dimethoxybenzoselenoate]: the solubility at 24 h was 55 µM.

Still in this series, the particulars now being: water (saturated solution), thermodynamic from solid; water, room temperature (20° C), after 24 h, average of 3; read-out: Experimental Aqueous Solubility.
For the compound `C[Se]C(=O)c1cccc(C(=O)[Se]C)n1` [EDA-119, Se,Se-dimethyl pyridine-2,6-bis(carboselenoate)], the solubility at 24 h was 137 µg/mL.

With `CC(=O)C[Se]C(=O)c1ccc(Cl)cc1` [EDA-71, Se-(2-oxopropyl) 4-chlorobenzoselenoate], the solubility at 24 h was determined as 132 µg/mL.

Turning to `CC(C)(C)C(=O)C[Se]C(=O)c1ccc(Cl)cc1` [EDA-73, Se-(3,3-dimethyl-2-oxobutyl) 4-chlorobenzoselenoate], the solubility at 24 h was ~1 µg/mL.

Consider `COc1cc(OC)cc(C(=O)[Se]CC(=O)C(C)(C)C)c1` [EDA-74, Se-(3,3-dimethyl-2-oxobutyl) 3,5-dimethoxybenzoselenoate], for which the solubility at 24 h came to 19 µg/mL.

The series is the same for the next values; noted with them: water (saturated solution); logSm calculated based on solubility Sm (mol/L); read-out: Experimental Aqueous Solubility logSm (converted).
In the case of `CC(C)(C)C(=O)C[Se]C(=O)c1ccc(Cl)cc1` [EDA-73, Se-(3,3-dimethyl-2-oxobutyl) 4-chlorobenzoselenoate], the solubility at 24 h was 3.16 µM.
